Assay results taken from patent US8465724B2, “Multi-drug ligand conjugates” (Endocyte, Inc., priority 2005, dated 2013).
Entries after “also recorded” stand apart in the source; their conditions may differ.

Key:
[1] = target: T1, folate receptors (FRs) on KB cells (Homo sapiens, UniProt P15328); test: Relative affinity assay (displacement of 3H-folic acid); type: binding; conditions: relative to folic acid, set to 1, 100 nM 3H-folic acid
T1 construct: FR-positive KB cells were heavily seeded into 24-well cell culture plates; endogenous in cells; host or cells: KB cells
Protocol: The affinity for folate receptors (FRs) relative to folate was determined according to a previously described method (Westerhof, G. R., J. H. Schomagel, et al. (1995) Mol. Pharm. 48: 459-471) with slight modification. Briefly, FR-positive KB cells were heavily seeded into 24-well cell culture plates and allowed to adhere to the plastic for 18 h. Spent incubation media was replaced in designated wells with folate-free RPMI (FFRPMI) supplemented with 100 nM ^3H-folic acid in the absence and presence of increasing concentrations of test article or folic acid. Cells were incubated for 60 min at 37° C. and then rinsed 3 times with PBS, pH 7.4. Five hundred microliters of 1% SDS in PBS, pH 7.4, were added per well. Cell lysates were then collected and added to individual vials containing 5 mL of scintillation cocktail, and then counted for radioactivity. Negative control tubes contained only the ^3H-folic acid in FFRPMI (no competitor). Positive control tubes contained a final concentration of 1 mM folic acid, and CPMs measured in these samples (representing non-specific binding of label) were subtracted from all samples.

[2] = system: folate receptor-positive KB cells; type: cell-based, human
Protocol: The compounds described herein were evaluated using an in vitro cytotoxicity assay that predicts the ability of the drug to inhibit the growth of folate receptor-positive KB cells. The compounds were comprised of folate linked to a respective chemotherapeutic drug, as prepared according to the protocols described herein. The KB cells were exposed for up to 7 h at 37° C. to the indicated concentrations of folate-drug conjugate in the absence or presence of at least a 100-fold excess of folic acid. The cells were then rinsed once with fresh culture medium and incubated in fresh culture medium for 72 hours at 37° C. Cell viability was assessed using a ^3H-thymidine incorporation assay.
As shown in the figures herein, dose-dependent cytotoxicity was measurable, and in most cases, the IC50 values (concentration of drug conjugate required to reduce ^3H-thymidine incorporation into newly synthesized DNA by 50%) were in the low nanomolar range.

FR-positive M109 tumors = test: Inhibition of tumor growth in mice, M109; type: in vivo, Balb/c mice
Protocol: The anti-tumor activity of the compounds described herein, when administered intravenously (i.v.) to tumor-bearing animals, was evaluated in Balb/c mice bearing subcutaneous M109 tumors. […] Tumor growth was measured using calipers at 2-day or 3-day intervals in each treatment group. Tumor volumes were calculated using the equation V=a×b^2/2, where “a” is the length of the tumor and “b” is the width expressed in millimeters.

[3] = Weight determination, Balb/c mice (M109 study); type: in vivo; conditions: 1 μmol/kg and 2 μmol/kg TIW (6 doses)
Protocol: (§1) The percentage weight change of the mice was determined in mice (5 mice/group) on the indicated days post-tumor inoculation (PTI) as shown in the graph for the samples described in the related tumor volume assay.

[4] = system: FR-positive s.c. human xenograft KB tumors; test: Inhibition of tumor growth in mice, KB; type: in vivo, nu/nu mice
Protocol: The anti-tumor activity of the compounds described herein, when administered intravenously (i.v.) to tumor-bearing animals, was evaluated in nu/nu mice bearing subcutaneous KB tumors. […] Tumor growth was measured using calipers at 2-day or 3-day intervals in each treatment group. Tumor volumes were calculated using the equation V=a×b^2/2, where “a” is the length of the tumor and “b” is the width expressed in millimeters.

[5] = Weight determination, nude mice; type: in vivo, nu/nu mice
Protocol: as §1

[6] = system: folate receptor negative 4T1 tumors; test: 4T-1 tumor volume assay; type: in vivo, Balb/c mice; conditions: 2 μmol/kg TIW for two weeks
Protocol: Six to seven week-old mice (female Balb/c strain) were obtained from Harlan, Inc., Indianapolis, Ind. The mice were maintained on Harlan's folate-free chow for a total of three weeks prior to the onset of and during this experiment. Folate receptor-negative 4T-1 tumor cells (1×10^6 cells per animal) were inoculated in the subcutis of the right axilla. […] Tumor growth was measured using calipers at 2-day or 3-day intervals in each treatment group. Tumor volumes were calculated using the equation V=a×b^2/2, where “a” is the length of the tumor and “b” is the width expressed in millimeters.

[7] = system: folate receptor positive human tumors; type: in vivo, nude mice; conditions: 2 μmol/kg TIW, five animals
[8] = system: KB, 4T-1c12, and ID8-c115 tumor cell lines; test: In vitro cytotoxic activity on three tumor cell lines; conditions: 4T-1c12, ID8-c115, plus excess folic acid
[9] = 1 μmol/kg TIW for 2 weeks plus 40 μmol/kg EC20 (rhenium complex)
[10] = 1 μmol/kg TIW for 2 weeks, without EC20

T1 sequence (P15328 25-234): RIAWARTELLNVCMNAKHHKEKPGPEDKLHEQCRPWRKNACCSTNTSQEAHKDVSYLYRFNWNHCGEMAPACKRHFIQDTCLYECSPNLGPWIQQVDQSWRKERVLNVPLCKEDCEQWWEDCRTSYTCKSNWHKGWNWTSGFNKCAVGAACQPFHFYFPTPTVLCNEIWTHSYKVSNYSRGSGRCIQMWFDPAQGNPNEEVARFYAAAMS

SMILES | relative binding affinity at folic acid receptors [1] | potency of Example 11 relative to Example 9 ([2]; 3H-thymidine incorporation IC50 compared) | IC50 ([2]; KB cells, without excess folic acid, read-out: IC50, 3H-thymidine incorporation) [nM] | effect of excess folic acid on activity in 3H-thymidine incorporation ([2]; with excess folic acid) | growth of M109 tumors (FR-positive M109 tumors; 1 μmol/kg and 2 μmol/kg TIW (6 doses)) | growth of M109 tumors, higher dose (FR-positive M109 tumors; 2 μmol/kg TIW (6 doses), also after dosing ended on day 20) | complete responses, M109 tumors (FR-positive M109 tumors; 2 μmol/kg TIW (6 doses), five animals) | weight of Balb/c mice [3] | complete responses, KB tumors ([4]; 1 μmol/kg TIW for 2 weeks (6 doses), alone) | complete responses, KB tumors, with EC20 [4, 9] | growth of KB tumors, with EC20 [4, 9] | growth of KB tumors [4, 10] | activity on established s.c. KB tumors versus controls ([4]; 1 μmol/kg TIW for two weeks, FIG. 13) | activity on large s.c. KB tumors ([4]; 2 μmol/kg TIW, 2 weeks, start at 250, 500 or 750 mm^3) | weight of nu/nu (nude) mice, with EC20 [5, 9] | weight of nu/nu (nude) mice [5, 10] | weight of nude mice ([5]; 2 μmol/kg TIW, FIG. 11) | activity on 4T1 tumors [6] | complete responses, FR-positive human tumors [7] | in vitro cytotoxic activity with excess folic acid [8]
CC[C@]1(O)C[C@@H]2CN(CCc3c([nH]c4ccccc34)[C@@](C(=O)OC)(c3cc4c(cc3OC)N(C)[C@H]3[C@@](O)(C(=O)NNC(=O)OCCSSC[C@H](NC(=O)[C@H](CN)NC(=O)[C@H](CC(=O)O)NC(=O)[C@H](CC(=O)O)NC(=O)[C@H](CC(=O)O)NC(=O)CC[C@H](NC(=O)c5ccc(NCc6cnc7nc(N)[nH]c(=O)c7n6)cc5)C(=O)O)C(=O)O)[C@H](O)[C@]5(CC)C=CCN6CC[C@]43[C@@H]65)C2)C1 [Example 9] | 0.24 | – | – | – | – | – | – | – | – | – | – | – | – | – | – | – | – | – | – | –
CC[C@]1(O)CC2CN(CCc3c([nH]c4ccccc34)[C@@](C(=O)OC)(c3cc4c(cc3OC)N(C)[C@H]3[C@@](O)(C(=O)NNC(=O)OCCSSC[C@H](NC(=O)[C@H](CNC(=O)CCSSCCNC5=C(C)C(=O)C6=C(C5=O)[C@@H](COC(N)=O)[C@@]5(OC)[C@H]7N[C@H]7CN65)NC(=O)[C@H](CC(=O)O)NC(=O)[C@H](CC(=O)O)NC(=O)[C@H](CC(=O)O)NC(=O)CC[C@H](NC(=O)c5ccc(NCc6cnc7nc(N)[nH]c(=O)c7n6)cc5)C(=O)O)C(=O)O)[C@H](O)[C@]5(CC)C=CCN6CC[C@]43[C@@H]65)C2)C1 (stereo partly shown) [Example 11] | 0.21 | more than 10 fold | 5 | folic acid competes with the conjugates for binding to the folate receptor | inhibited the growth of solid tumors | strong inhibition of tumor growth | all five animals showed a complete response | little effect on the weight of the mice; also recorded: absence of an effect | 5/5 | 0/5 | inhibitory effect is prevented (competed against) by the EC20 rhenium complex | inhibits the growth of solid tumors | superior to controls | inhibits the growth of large tumors and gives a complete response in test animals | absence of an effect | did not affect the weight of the test animal significantly from controls; also recorded: absence of an effect | did not significantly affect the weight of the test animals; also recorded: absence of an effect | does not have any effect on the tumors compared to controls | complete response in five out of five test animals | reduced in the presence of excess folic acid
Nc1nc2ncc(CNc3ccc(C(=O)N[C@@H](CCC(=O)O)C(=O)O)cc3)nc2c(=O)[nH]1 [folic acid, reference compound] | 1.0 | – | – | – | – | – | – | – | – | – | – | – | – | – | – | – | – | – | – | –
